{"source": "PubChem BioAssay AID330", "about": "(DTP/NCI, 2004)", "tested_on": "P388 leukemia ip, CD2F1 mice, survival T/C", "assay": "NCI In Vivo Anticancer Drug Screen. Data for tumor model P388 Leukemia (intraperitoneal) in CD2F1 (CDF1) mice", "conditions": "endpoint: median survival time, higher = longer survival", "outline": "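Mice carrying the transplanted tumor received test compound or vehicle. Survival was recorded in each group, and the value is the treated-group measurement divided by that of the vehicle-treated control group.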", "key": {"[1]": {"conditions": "dose: 50.0 mg/kg/injection, schedule: Q01DX005 (ip), vehicle: Klucel (hydroxypropylcellulose) (HPC)"}, "[2]": {"conditions": "dose: 100.0 mg/kg/injection, schedule: Q01DX005 (ip), vehicle: Klucel (hydroxypropylcellulose) (HPC)"}, "[3]": {"conditions": "dose: 200.0 mg/kg/injection, schedule: Q01DX005 (ip), vehicle: Klucel (hydroxypropylcellulose) (HPC)"}, "[4]": {"conditions": "dose: 12.5 mg/kg/injection, schedule: Q01DX005 (ip), vehicle: Klucel (hydroxypropylcellulose) (HPC)"}, "[5]": {"conditions": "dose: 25.0 mg/kg/injection, schedule: Q01DX005 (ip), vehicle: Klucel (hydroxypropylcellulose) (HPC)"}, "[6]": {"conditions": "dose: 100.0 mg/kg/injection, schedule: Q04DX003 (ip), vehicle: saline"}, "[7]": {"conditions": "dose: 200.0 mg/kg/injection, schedule: Q04DX003 (ip), vehicle: saline"}, "[8]": {"conditions": "dose: 25.0 mg/kg/injection, schedule: Q01DX005 (ip), vehicle: water"}, "[9]": {"conditions": "dose: 100.0 mg/kg/injection, schedule: Q01DX005 (ip), vehicle: water"}}, "note": "“And” between values parts separate entries of the source, which are not always exact repeats. Equal values may be shown once. Inconclusive results and toxic doses are left out. Peptide text beside a SMILES is read from it. * marks the point of attachment. Cbz = O=C(OCc1ccccc1)*"}
{"smiles": "[Se]=P(c1ccccc1)(N1CC1)N1CC1", "values": [{"measurement": "T/C", "setting": "dose: 25.0 mg/kg/injection, schedule: Q04DX003 (ip), vehicle: saline with Tween-80", "value": "108 % of control"}, {"measurement": "T/C", "setting": "dose: 50.0 mg/kg/injection, schedule: Q04DX003 (ip), vehicle: saline with Tween-80", "value": "109 % of control"}]}
{"smiles": "O=C(O)CCCc1cccc2c1CCCC2", "values": [{"measurement": "T/C", "setting": "[1]", "value": "102 % of control"}, {"measurement": "T/C", "setting": "[2]", "value": "100 % of control"}, {"measurement": "T/C", "setting": "[3]", "value": "100 % of control"}]}
{"smiles": "CC1S(=O)(=O)OCCOS1(=O)=O", "values": [{"measurement": "T/C", "setting": "[4]", "value": "162 % of control"}, {"measurement": "T/C", "setting": "[5]", "value": "175 % of control and 275 % of control"}, {"measurement": "T/C", "setting": "[1]", "value": "165 % of control and 288 % of control"}]}
{"smiles": "O=c1nc2[nH]c3c4cccc5cccc(c3nc2c(=O)[nH]1)c54", "values": [{"measurement": "T/C", "setting": "[4]", "value": "101 % of control and 108 % of control"}, {"measurement": "T/C", "setting": "[5]", "value": "101 % of control and 98 % of control"}, {"measurement": "T/C", "setting": "[1]", "value": "106 % of control and 110 % of control (2×)"}, {"measurement": "T/C", "setting": "[2]", "value": "108 % of control and 113 % of control and 124 % of control"}]}
{"smiles": "COc1ccc(-n2c(C)nc3c(cnn3C)c2=O)cc1", "values": [{"measurement": "T/C", "setting": "[5]", "value": "101 % of control and 96 % of control"}, {"measurement": "T/C", "setting": "[1]", "value": "100 % of control and 101 % of control and 97 % of control"}, {"measurement": "T/C", "setting": "[2]", "value": "108 % of control and 115 % of control and 95 % of control"}, {"measurement": "T/C", "setting": "[3]", "value": "99 % of control and 120 % of control and 97 % of control"}]}
{"smiles": "S=C1Cc2[nH]c(=S)sc(=S)c2C(=S)N1", "values": [{"measurement": "T/C", "setting": "dose: 100.0 mg/kg/injection, schedule: Q01DX009 (ip), vehicle: saline with Tween-80", "value": "87 % of control"}]}
{"smiles": "O=C1OC(CO)C(O)C2OC(=O)c3c(c(O)c(O)c(O)c3-c3c(O)c(O)c(O)c4c3C(=O)OC2C4O)-c2c1cc(O)c(O)c2O", "note": "(centres undefined)", "values": [{"measurement": "T/C", "setting": "dose: 1.56 mg/kg/injection, schedule: Q01DX009 (ip), vehicle: saline", "value": "105 % of control"}, {"measurement": "T/C", "setting": "dose: 3.12 mg/kg/injection, schedule: Q01DX009 (ip), vehicle: saline", "value": "105 % of control"}, {"measurement": "T/C", "setting": "dose: 6.25 mg/kg/injection, schedule: Q01DX009 (ip), vehicle: saline", "value": "90 % of control"}]}
{"smiles": "Cc1ccc(C)c(NC(=O)Nc2nccs2)c1", "values": [{"measurement": "T/C", "setting": "dose: 25.0 mg/kg/injection, schedule: Q01DX009 (ip), vehicle: Klucel (hydroxypropylcellulose) (HPC)", "value": "99 % of control"}, {"measurement": "T/C", "setting": "dose: 50.0 mg/kg/injection, schedule: Q01DX009 (ip), vehicle: Klucel (hydroxypropylcellulose) (HPC)", "value": "90 % of control"}, {"measurement": "T/C", "setting": "dose: 200.0 mg/kg/injection, schedule: Q01DX009 (ip), vehicle: Klucel (hydroxypropylcellulose) (HPC)", "value": "91 % of control"}]}
{"smiles": "NC(COC(c1ccccc1)(c1ccccc1)c1ccccc1)C(=O)O", "note": "(centres undefined)", "values": [{"measurement": "T/C", "setting": "[6]", "value": "118 % of control"}, {"measurement": "T/C", "setting": "[7]", "value": "154 % of control"}]}
{"smiles": "FC(F)(F)c1ccc2c(c1)N(CCCCl)c1ccccc1S2", "values": [{"measurement": "T/C", "setting": "dose: 50.0 mg/kg/injection, schedule: Q04DX003 (ip), vehicle: saline", "value": "94 % of control"}, {"measurement": "T/C", "setting": "[6]", "value": "99 % of control"}, {"measurement": "T/C", "setting": "[7]", "value": "104 % of control"}, {"measurement": "T/C", "setting": "dose: 400.0 mg/kg/injection, schedule: Q04DX003 (ip), vehicle: saline", "value": "98 % of control"}]}
{"smiles": "Cc1cc[n+](CC(N)=O)cc1", "values": [{"measurement": "T/C", "setting": "dose: 12.5 mg/kg/injection, schedule: Q01DX009 (ip), vehicle: saline", "value": "96 % of control"}, {"measurement": "T/C", "setting": "dose: 25.0 mg/kg/injection, schedule: Q01DX009 (ip), vehicle: saline", "value": "94 % of control"}, {"measurement": "T/C", "setting": "dose: 50.0 mg/kg/injection, schedule: Q01DX009 (ip), vehicle: saline", "value": "96 % of control"}]}
{"smiles": "COC(=O)c1c(OC)cc2cc3c(c(O)c2c1C)C(=O)C1(O)C(=O)C=C(OC)C(OC(=O)CC(C)N)=C1C3=O", "note": "(centres undefined)", "values": [{"measurement": "T/C", "setting": "[8]", "value": "103 % of control"}, {"measurement": "T/C", "setting": "dose: 50.0 mg/kg/injection, schedule: Q01DX005 (ip), vehicle: water", "value": "100 % of control"}, {"measurement": "T/C", "setting": "[9]", "value": "104 % of control"}]}
{"smiles": "O=C(O)Cc1cccc(S(=O)(=O)F)c1", "values": [{"measurement": "T/C", "setting": "dose: 60.0 mg/kg/injection, schedule: Q01DX005 (ip), vehicle: saline with Tween-80", "value": "104 % of control"}, {"measurement": "T/C", "setting": "dose: 120.0 mg/kg/injection, schedule: Q01DX005 (ip), vehicle: saline with Tween-80", "value": "100 % of control"}]}
{"smiles": "Cc1ccc(NNC(=O)C(=O)O[C@H]2C(=O)OC[C@@H]2O)cc1", "values": [{"measurement": "T/C", "setting": "[1]", "value": "100 % of control"}, {"measurement": "T/C", "setting": "[2]", "value": "100 % of control"}, {"measurement": "T/C", "setting": "[3]", "value": "93 % of control"}]}
{"smiles": "N#CC1CCCC(CCc2ccccc2)(c2ccccc2)C1=N", "note": "(centres undefined)", "values": [{"measurement": "T/C", "setting": "dose: 50.0 mg/kg/injection, schedule: Q01DX001 (ip), vehicle: Klucel (hydroxypropylcellulose) (HPC)", "value": "100 % of control"}, {"measurement": "T/C", "setting": "dose: 100.0 mg/kg/injection, schedule: Q01DX001 (ip), vehicle: Klucel (hydroxypropylcellulose) (HPC)", "value": "99 % of control and 101 % of control"}, {"measurement": "T/C", "setting": "dose: 200.0 mg/kg/injection, schedule: Q01DX001 (ip), vehicle: Klucel (hydroxypropylcellulose) (HPC)", "value": "91 % of control"}, {"measurement": "T/C", "setting": "dose: 400.0 mg/kg/injection, schedule: Q01DX001 (ip), vehicle: Klucel (hydroxypropylcellulose) (HPC)", "value": "102 % of control and 92 % of control"}]}
{"smiles": "O=C(O)C(Cc1ccc(O)cc1)NC(=O)C1CCCN1C(=O)OCc1ccccc1", "note": "(stereo not drawn) (Cbz-Pro-Tyr-OH; configuration not given here)", "values": [{"measurement": "T/C", "setting": "dose: 50.0 mg/kg/injection, schedule: Q01DX005 (ip), vehicle: saline", "value": "96 % of control"}, {"measurement": "T/C", "setting": "dose: 100.0 mg/kg/injection, schedule: Q01DX005 (ip), vehicle: saline", "value": "96 % of control"}, {"measurement": "T/C", "setting": "dose: 200.0 mg/kg/injection, schedule: Q01DX005 (ip), vehicle: saline", "value": "96 % of control"}]}
{"smiles": "OC(CCl)CN1CCN(CC(O)CCl)CC1", "note": "(centres undefined)", "values": [{"measurement": "T/C", "setting": "[8]", "value": "150 % of control"}, {"measurement": "T/C", "setting": "[9]", "value": "90 % of control and 92 % of control"}]}
